Test results: US9650339B2, “Inhibitors of histone demethylases” (Gilead Sciences, Inc., priority 2013, dated 2017)

Tests used:
MCF7 cells = assay: Cell proliferation assay MCF7; assay type: cell-based; conditions: MCF7 human breast cancer cells; 120 hours; ATPlite 1 Step
Description: MCF7 cells were seeded in multi well plates at a density optimized to give approximately 90% confluent cells at the time of harvest. Cells were incubated for 24 hours before addition of compound. Compounds were diluted in complete medium and added to the plates in duplicates. The final concentration of DMSO was maximum 0.5%. Complete medium used was DMEM with GlutaMAX containing 10% FBS and pen/strep.
120 hours after addition of compounds, the plates were harvested and analyzed by ATPlite 1 Step (Perkin Elmer, cat no 6016739) according to the manufactures recommendation.

KDM5B (PLU-1) = target: T1, KDM5B (PLU-1) (Homo sapiens, UniProt Q9UGL1); assay: Histone lysine demethylase AlphaLISA assay, KDM5B; assay type: biochemical; conditions: read-out: KDM5B HDME Inhibition IC50
T1 sequence (Q9UGL1 1-809): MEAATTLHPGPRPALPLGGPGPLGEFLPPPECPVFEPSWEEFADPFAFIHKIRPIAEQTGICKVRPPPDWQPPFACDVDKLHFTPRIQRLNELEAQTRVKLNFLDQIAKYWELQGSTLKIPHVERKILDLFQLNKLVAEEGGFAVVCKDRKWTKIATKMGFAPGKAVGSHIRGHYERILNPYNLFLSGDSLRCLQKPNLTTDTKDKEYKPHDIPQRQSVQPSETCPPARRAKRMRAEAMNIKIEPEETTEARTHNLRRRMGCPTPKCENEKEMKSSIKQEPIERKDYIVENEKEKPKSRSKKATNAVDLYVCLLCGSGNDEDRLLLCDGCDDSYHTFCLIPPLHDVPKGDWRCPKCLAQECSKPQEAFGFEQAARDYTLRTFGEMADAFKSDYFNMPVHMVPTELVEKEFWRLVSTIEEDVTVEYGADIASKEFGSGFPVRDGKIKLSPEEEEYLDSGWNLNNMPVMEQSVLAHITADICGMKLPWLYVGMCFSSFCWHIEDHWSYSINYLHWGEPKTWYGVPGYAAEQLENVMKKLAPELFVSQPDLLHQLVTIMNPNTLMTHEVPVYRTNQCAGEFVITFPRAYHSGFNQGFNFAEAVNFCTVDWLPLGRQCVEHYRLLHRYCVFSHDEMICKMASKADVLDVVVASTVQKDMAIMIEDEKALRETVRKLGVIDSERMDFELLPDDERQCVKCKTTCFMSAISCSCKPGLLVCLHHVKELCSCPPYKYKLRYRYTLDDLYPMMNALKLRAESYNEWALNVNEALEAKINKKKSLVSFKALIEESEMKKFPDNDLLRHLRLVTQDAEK
Description: (§1) Assays are performed analogously to the protocol described by PerkinElmer (Roy et al. PerkinElmer Technical Note: AlphaLISA #12, April 2011)
(§2) Enzymes are dissolved in enzyme buffer and incubated for 10 min before being added to 3% DMSO solutions of compounds in enzyme buffer. Incubated for another 10 minutes, before substrate solution is added and the reaction mixture is incubated at room temperature. 10 μL acceptor beads, suspended in Epigenetic Buffer (Perkin Elmer AL008) from stock, are added and the suspension is incubated in the dark at room temperature, before a suspension of streptavidin donor beads (Perkin Elmer 6760002) in Epigenetic Buffer is added. After incubation at room temperature in the dark the plates are read. […]
H3K4M3B: H-ART(Kme3)QTARKSTGGKAPRKQLA-NH-Biotin (Caslo, Denmark) […]
(§3) Substrate Solution: Substrate, 25 μM L-Asc, and 10 μM α-KG in Buffer A.

H3K4me3 mark = assay: Histone lysine demethylase immunofluorescence assay, non-transfected U2OS cells; assay type: cell-based; conditions: Homo sapiens, staining of the H3K4me3 mark, 20 hours incubation with compound
Description: U2OS cells were harvested and seeded into multi well plates into media containing compound. The media used was DMEM containing 5% FBS and pen/strep. 20 hours after incubation of cells with compounds, the cells were washed once in PBS, harvested by fixation with formaldehyde 4% aqueous solution, and washed in PBS. Subsequently, the cells were permeabilized in PBS with 0.2% Triton X-100. Blocking was performed in PBS with 0.2% Triton X-100 and 5% FBS. The cells were incubated with αH3K4me3 primary antibody (Cell Signaling, #9751S) in blocking solution over night at 4° C. After incubation with primary antibody, the cells were washed with PBS, incubated with secondary antibody (Alexa fluor 594 goat anti rabbit IgG, Invitrogen, A11012) and Hoechst, (Sigma, 33342) in blocking solution, and washed again with PBS. Finally, PBS was added and high throughput imaging and analysis were performed by an IN Cell Analyzer 1000 (GE Healthcare). The IC50 values were based on an average measure of the staining of the H3K4me3 mark in cells.

KDM4C (JMJD2C) = target: T2, KDM4C (JMJD2C) (Homo sapiens, UniProt Q9H3R0); assay: Histone lysine demethylase AlphaLISA assay, KDM4C; assay type: biochemical; conditions: read-out: KDM4C HDME Inhibition IC50
T2 sequence (Q9H3R0 1-349): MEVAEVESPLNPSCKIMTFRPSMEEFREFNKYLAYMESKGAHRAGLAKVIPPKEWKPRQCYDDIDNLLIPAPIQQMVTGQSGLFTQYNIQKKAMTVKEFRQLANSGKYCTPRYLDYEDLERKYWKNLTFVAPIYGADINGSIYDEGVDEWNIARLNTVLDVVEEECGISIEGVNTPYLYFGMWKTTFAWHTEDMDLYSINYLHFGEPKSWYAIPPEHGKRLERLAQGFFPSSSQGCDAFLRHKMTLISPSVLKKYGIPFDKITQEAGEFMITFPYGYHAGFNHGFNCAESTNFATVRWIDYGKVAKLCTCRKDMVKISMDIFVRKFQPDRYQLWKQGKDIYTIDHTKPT
Description: as §1
Enzymes are dissolved in enzyme buffer and incubated for 10 min before being added to 3% DMSO solutions of compounds in enzyme buffer. Incubated for another 10 minutes, before substrate solution is added and the reaction mixture is incubated at room temperature. 10 μL acceptor beads, suspended in Epigenetic Buffer (Perkin Elmer AL008) from stock, are added and the suspension is incubated in the dark at room temperature, before a suspension of streptavidin donor beads (Perkin Elmer 6760002) in Epigenetic Buffer is added. After incubation at room temperature in the dark the plates are read.
BK9M3: Biotin-ARTKQTAR(KMe3)STGGKAPRKQ-NH2 (Caslo, Denmark) […]
as §3

KDM6A (UTX) = KDM6A (UTX) (Homo sapiens, UniProt O15550); assay: Histone lysine demethylase AlphaLISA assay, KDM6A; assay type: biochemical; conditions: read-out: KDM6A HDME Inhibition IC50
Description: as §1, §2
BK27M3: Biotin-ATKAAR(Kme3)SAPATGGVKKPHRY-NH2? (Caslo, Denmark) […]
as §3

KDM2B (FBXL10) = target: T3, KDM2B (FBXL10) (Homo sapiens, UniProt Q8NHM5); assay: Histone lysine demethylase AlphaLISA assay, KDM2B; assay type: biochemical; conditions: read-out: KDM2B HDME Inhibition IC50
T3 sequence (Q8NHM5 1-650): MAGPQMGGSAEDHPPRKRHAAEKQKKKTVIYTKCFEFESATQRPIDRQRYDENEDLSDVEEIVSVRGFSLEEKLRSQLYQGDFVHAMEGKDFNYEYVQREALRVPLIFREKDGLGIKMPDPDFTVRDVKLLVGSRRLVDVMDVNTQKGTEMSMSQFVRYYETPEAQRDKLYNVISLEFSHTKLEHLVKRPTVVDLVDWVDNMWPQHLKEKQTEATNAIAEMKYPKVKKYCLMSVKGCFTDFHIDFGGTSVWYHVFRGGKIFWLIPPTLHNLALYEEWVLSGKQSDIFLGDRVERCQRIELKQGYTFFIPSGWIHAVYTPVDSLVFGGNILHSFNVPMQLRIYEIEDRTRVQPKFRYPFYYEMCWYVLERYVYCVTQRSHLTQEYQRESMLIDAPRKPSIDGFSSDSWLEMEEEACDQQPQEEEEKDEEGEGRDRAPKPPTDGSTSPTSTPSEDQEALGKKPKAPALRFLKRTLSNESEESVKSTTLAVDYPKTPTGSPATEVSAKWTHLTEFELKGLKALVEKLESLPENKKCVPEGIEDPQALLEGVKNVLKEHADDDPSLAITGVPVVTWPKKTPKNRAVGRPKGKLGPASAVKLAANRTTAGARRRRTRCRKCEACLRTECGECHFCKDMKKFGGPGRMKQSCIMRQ
Description: as §1, §2
BH3K36M2: RKAAPATGGVK(Me2)KPHRYRPGTVK-(BIOTIN)? (Anaspec)
as §3

Sequence of KDM6A (UTX) (O15550 919-1401): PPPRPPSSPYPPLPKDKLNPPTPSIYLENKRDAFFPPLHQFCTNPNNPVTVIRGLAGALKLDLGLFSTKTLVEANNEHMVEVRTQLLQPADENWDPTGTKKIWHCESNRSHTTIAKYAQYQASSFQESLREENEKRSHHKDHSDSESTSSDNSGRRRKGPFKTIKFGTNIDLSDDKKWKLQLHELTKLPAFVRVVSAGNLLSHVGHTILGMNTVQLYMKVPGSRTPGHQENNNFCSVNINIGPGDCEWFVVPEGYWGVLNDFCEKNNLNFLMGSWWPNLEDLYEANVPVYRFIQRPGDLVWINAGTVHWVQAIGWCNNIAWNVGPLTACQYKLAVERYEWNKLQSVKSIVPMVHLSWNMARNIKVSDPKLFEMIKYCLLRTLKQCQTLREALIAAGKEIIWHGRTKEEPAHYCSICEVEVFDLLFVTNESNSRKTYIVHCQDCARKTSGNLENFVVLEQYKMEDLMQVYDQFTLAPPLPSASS

Compound	EC50 (MCF7 cells)	IC50 (KDM5B (PLU-1))	IC50 (H3K4me3 mark)	IC50 (KDM4C (JMJD2C))	IC50 (KDM6A (UTX))	IC50 (KDM2B (FBXL10))
CCN(CC)CCCCNCc1cc(CNC(=O)C(=O)OC(C)(C)C)ccn1 [Compound 28, tert-butyl ({[2-({[4-(diethylamino)-butyl]amino}methyl)pyridin-4-yl]methyl}carbamoyl)-formate]	250 to 2500 nM	250 to 2500 nM	250 to 2500 nM	> 2500 nM	> 2500 nM	
CCN(CCN1CCC1)C(=O)CNCc1cc(CNC(=O)C(F)(F)F)ccn1 [Compound 30, N-[(2-{[({[2-(azetidin-1-yl)ethyl](ethyl)-carbamoyl}-methyl)amino]methyl}-pyridin-4-yl)methyl]-2,2,2-trifluoroacetamide]	< 250 nM	250 to 2500 nM	< 250 nM	> 2500 nM	> 2500 nM	> 2500 nM
CCN(CCN(C)C)C(=O)CNCc1cc(CNC(=O)C(F)(F)CC)ccn1 [Compound 32, N-[(2-{[({[2-(dimethylamino)-ethyl](ethyl)-carbamoyl}methyl)-amino]methyl}pyridin-4-yl)methyl]-2,2-difluorobutanamide]	> 2500 nM	< 250 nM	> 2500 nM	> 2500 nM	> 2500 nM	> 2500 nM
CCN(CC)CCCCNCc1cc(C=NNc2ccc(C#N)cc2)ccn1 [Compound 70, 4-[2-{[2-({[4-(diethylamino)-butyl]amino}methyl)pyridin-4-yl]methylidene}-hydrazin-1-yl]benzonitrile]	250 to 2500 nM	250 to 2500 nM	250 to 2500 nM	> 2500 nM	> 2500 nM	
CCN(CC)CCCCNCc1cc(C=NCC(C)O)ccn1 (centres unmarked) [Compound 74, 1-[{[2-({[4-(diethylamino)-butyl]amino}-methyl)pyridin-4-yl]methylidene}-amino]propan-2-ol]	< 250 nM	< 250 nM	< 250 nM	> 2500 nM		
CCN(CC)CCCCNCc1cc(/C=N/CC2(CO)CC2)ccn1 [Compound 77, (1-{[{[2-({[4-(diethylamino)-butyl]amino}-methyl)pyridin-4-yl]-methylidene}amino]-methyl}cyclopropyl)-methanol]	< 250 nM	250 to 2500 nM	< 250 nM	> 2500 nM		> 2500 nM

Further lines, results first:

EC50 (MCF7 cells)	IC50 (KDM5B (PLU-1))	IC50 (H3K4me3 mark)	IC50 (KDM4C (JMJD2C))	IC50 (KDM6A (UTX))	IC50 (KDM2B (FBXL10))	Compound
< 250 nM	< 250 nM	< 250 nM	250 to 2500 nM		> 2500 nM	CCN(CC1CCCN1C)C(=O)CNCc1cc(/C=N/CCO)ccn1 (centres unmarked) [Compound 79, N-ethyl-2-[({4-[[(2-hydroxyethyl)imino]-methyl]pyridin-2-yl}methyl)amino]-N-[(1-methylpyrrolidin-2-yl)-methyl]acetamide]
< 250 nM	> 2500 nM	< 250 nM	> 2500 nM	> 2500 nM	> 2500 nM	CCN(CCCN(C)C)C(=O)CNCc1cc(/C=N/CCO)ccn1 [Compound 82, N-[3-(dimethylamino)propyl]-N-ethyl-2-[({4-[[(2-hydroxyethyl)imino]-methyl]pyridin-2-yl}methyl)amino]-acetamide]
< 250 nM	< 250 nM	< 250 nM	250 to 2500 nM		> 2500 nM	CCN(CC(C)N(C)C)C(=O)CNCc1cc(/C=N/CCO)ccn1 (centres unmarked) [Compound 83, N-[2-(dimethylamino)-propyl]-N-ethyl-2-[({4-[[(2-hydroxyethyl)imino]-methyl]pyridin-2-yl}methyl)amino]-acetamide]
250 to 2500 nM	< 250 nM	< 250 nM	< 250 nM	> 2500 nM	> 2500 nM	CCN(C[C@@H]1CCC[C@@H]1N(C)C)C(=O)CNCc1cc(/C=N/CCO)ccn1 [Compound 85, N-{[(1S,2S)-2-(dimethylamino)-cyclopentyl]methyl}-N-ethyl-2-[({4-[[(2-hydroxyethyl)imino]-methyl]pyridin-2-yl}methyl)amino] acetamide-]
< 250 nM	< 250 nM	< 250 nM	< 250 nM	> 2500 nM		CCN(CC)CCN(CC)C(=O)CNCc1cc(C=O)ccn1 [Compound 116, N-[2-(diethylamino)-ethyl]-N-ethyl-2-{[(4-formylpyridin-2-yl)methyl]amino}-acetamide]
< 250 nM	< 250 nM	< 250 nM	> 2500 nM			CCN(CC1CCCN1C)C(=O)CNCc1cc(C=O)ccn1 (centres unmarked) [Compound 119, N-ethyl-2-{[(4-formylpyridin-2-yl)methyl]amino}-N-[(1-methylpyrrolidin-2-yl)methyl]acetamide]
